The values below come from patent US11440906B2, “Biguanide derivatives and their rearrangement products for use in the treatment of cancer” (CENTRE NATIONAL DE LA RECHERCHE SCIENTIFIQUE, priority 2017, dated 2022).

As usually defined, the IC50 is the concentration that inhibits the measured activity by half.

Test [1] deals with A375 resistant melanoma cells. As to the kind of experiment: In vivo murine cancer model, A375 resistant xenograft. Also noted: species or system BALB/c nu/nu (nude) mice. The note with it: 0.7 mg/mouse/day intraperitoneal. The protocol: Animal experiments were carried out in accordance with the Declaration of Helsinki and were approved by a local ethical committee CIEPAL (Comité Institutionnel d'Ethique Pour l'Animal de Laboratoire-Azur). Female immune-deficient BALB/c nu/nu (nude) mice were obtained at 5 weeks of age from Envigo Laboratory (Gannat, France). Nude mice were inoculated subcutaneously with A375 sensitive or resistant melanoma cells (1.0×10^6 cells/mouse). After tumor apparition (±5 days), animals received intraperitoneal injection of Labrafil (Control), PLX4032 (0.7 mg/mouse/day) or CRO15 (0.7 mg/mouse/day) dissolved in Labrafil. The growth tumor curves were determined by measuring the tumor volume using the equation V=(L*W2)/2 (V=tumor volume, W=tumor width, L=tumor length). At the end of the experiment, mice were euthanized by cervical dislocation and tumors were taken for western blot and immunofluorescence experiments (LC3, Cleaved Caspase 3). TUNEL assay was performed using the In Situ Cell Death Detection Kit (Roche, Meylan, France). The results are shown in FIGS. 3A and 3B (A375 sensitive melanoma cells), and 4B and 4C (A375 resistant melanoma cells).
In Vivo Murine Cancer Model Animal experiments were carried out in accordance with the Declaration of Helsinki and were approved by a local ethical committee CIEPAL (Comite Institutionnel d'Ethique Pour l'Animal de Laboratoire-Azur). Female immune-deficient BALB/c nu/nu (nude) mice were obtained at 5 weeks of age from Envigo Laboratory (Gannat, France). Nude mice were inoculated subcutaneously with A375 resistant melanoma cells (1.0×10^6 cells/mouse). After tumor apparition (+5 days), animals received intraperitoneal injection of Labrafil (Control), PLX4032 (0.7 mg/mouse/day) or MTF319 (0.7 mg/mouse/day) dissolved in Labrafil. The growth tumor curves were determined by measuring the tumor volume using the equation V=(L*W2)/2 (V=tumor volume, W=tumor width, L=tumor length). At the end of the experiment, mice were euthanized by cervical dislocation.

The test system of the next test is A375 Sensitive cells. The test can be described thus: Viability test, trypan blue exclusion, A375 Sensitive cells. Format: cell-based, human. The note with it: Homo sapiens, A-375, viable cells as percentage of DMSO control. A digest of the protocol:
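A375 (B-Raf, CDKN2A, PTEN mutant) cells were exposed to compounds at 5.0 or 10 μM for 24 or 48 hr; CRO15 also at 0.5–50 μM for 48 hr or 5 μM for 2–48 hr; DMSO control. Viable cells were counted by trypan blue exclusion, as % of control. Three experiments in triplicate.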

Another test deals with melanoma cells. The note with it: literature, read-out: IC50 to induce cell death; cited from earlier work.
Setting [2] is: 24 h, read-out: Viab A375 5 μM/ 24 h.
[3] abbreviates: 48 h, read-out: Viab A375 5 μM/ 48 h.
The mark [4] stands for this setting: 24 h, read-out: Viab A375 10 μM/ 24 h.
Where [5] appears, read: 48 h, read-out: Viab A375 10 μM/ 48 h.

Read-outs that look alike come from different tables or passages of the source.

`CCOc1cccc(-c2nc(N)nc(Nc3ccccc3SSc3ccccc3Nc3nc(N)nc(-c4cccc(OCC)c4)n3)n2)c1` [MTF 319, N2,N2′-(disulfanediylbis(2,1-phenylene))bis(6-(3-ethoxyphenyl)-1,3,5-triazine-2,4-diamine)]: in test [1] (FIG. 4B, 6A), the tumor volume result is “decrease in tumor volume”. For the same molecule, the tumor weight entry in test [1] (FIG. 4C, 6B) was “had an effect on the tumor growth”. Also, the viability at 5 µM worked out at 8.6% in the test on A375 Sensitive cells (setting [2]) and 3.1% with A375 Sensitive cells (setting [3]). For the same molecule, the viability at 10 µM is 8.6% in the test on A375 Sensitive cells (setting [4]) and 0.6% with A375 Sensitive cells (setting [5]).
Consider `CN(C)C(=N)N=C(N)N` [metformin], for which, in the test with melanoma cells, the IC50 is 10 mM.
With `Cc1csc(NC(=N)NC(=N)c2ccccn2)n1` [MTF 289, N—(N-(4-methylthiazol-2-yl)carbamimidoyl)picolinimidamide], the viability at 5 µM in the test with A375 Sensitive cells (setting [2]) turned out to be 81.1%; in the test with A375 Sensitive cells (setting [3]), 90.4%. The values for the viability at 10 µM in the test on A375 Sensitive cells (setting [4]) and with A375 Sensitive cells (setting [5]) were 78.7% and 58.2%, respectively.
Consider `Nc1nc(Nc2ccccc2SSc2ccccc2Nc2nc(N)nc(-c3cccc(Br)c3)n2)nc(-c2cccc(Br)c2)n1` [MTF 323, N2,N2′-(disulfanediylbis(2,1-phenylene))bis(6-(3-bromophenyl)-1,3,5-triazine-2,4-diamine)], for which the viability at 5 µM in the test with A375 Sensitive cells (setting [2]) was 34.6%; with A375 Sensitive cells (setting [3]), 23.5%. In addition, the values for the viability at 10 µM with A375 Sensitive cells (setting [4]) and with A375 Sensitive cells (setting [5]) were 47.4% and 8.3%, respectively.
The corresponding values for `Cc1csc(NC(=N)NC(=N)c2ccncc2)n1` [MTF 291, N—(N-(4-methylthiazol-2-yl)carbamimidoyl)isonicotinimidamide] are 100%, 95.2%, 100% and 41.3%.
On the same counts, the results for `Cc1ccc(-c2nc(N)nc(Nc3ccccc3SSc3ccccc3Nc3nc(N)nc(-c4ccc(C)cc4)n3)n2)cc1` [MTF 451, N2,N2′-(disulfanediylbis(2,1-phenylene))bis(6-(p-tolyl)-1,3,5-triazine-2,4-diamine)] are 26.1%, 23.9%, 10.6% and 12.5%.
On the same counts, the results for `Cc1csc(NC(=N)NC(=N)c2cccnc2)n1` [MTF 290, N—(N-(4-methylthiazol-2-yl)carbamimidoyl)nicotinimidamide] are 43.4%, 21.6%, 50.5% and 14.4%.
For `Nc1nc(Nc2ccccc2SSc2ccccc2Nc2nc(N)nc(-c3ccc(Cl)cc3)n2)nc(-c2ccc(Cl)cc2)n1` [MTF 327, N2,N2′-(disulfanediylbis(2,1-phenylene))bis(6-(4-chlorophenyl)-1,3,5-triazine-2,4-diamine)], the viability at 5 µM in the test with A375 Sensitive cells (setting [2]) was 19.4%; in the test with A375 Sensitive cells (setting [3]) it was 14.5%. Moreover, the viability at 10 µM in the test with A375 Sensitive cells (setting [4]) came to 23.7%; with A375 Sensitive cells (setting [5]) it was 14.5%.
